Reference: patent US7989667B2, “Processes for the crystallization of 2,2,4,4-tetramethylcyclobutanediol” (Eastman Chemical Company, priority 2008, dated 2011)

Key:
[1] = Meta-stable zone width in isobutyl isobutyrate (colorimeter transmission on cooling from 90 to 10 °C); format: physicochemical; settings: for Limit of MZW / MZW (meta-stable zone width): isobutyl isobutyrate; for difference in onset of nucleation between repeated cool-downs: Experiments 3 and 4 of Table 2, same cooling rate 5 °C/hr; for Limit of Meta-Stable Zone Width: Table 1A, in isobutyl isobutyrate, data points shown in FIG. 7
From the text: The meta-stable zone width was estimated by charging 800 grams of a solution containing 100 relative weight % cis-2,2,4,4-tetramethylcyclobutanediol and 69 relative weight % trans-2,2,4,4-tetramethylcyclobutanediol in isobutyl isobutyrate solvent to a 1.2 L jacketed glass vessel. The vessel was equipped with a 4-blade flat blade pitched impeller for solids suspension, and the jacket was used to control the temperature of the vessel contents. The vessel was equipped with charging and sampling ports on top and a valve at the base to drain the vessel. The vessel contents were heated to 90° C., at which temperature both isomers were completely in solution.
All measurements to estimate the meta-stable zone width were made using a Beckmann Instruments PC 800 Colorimeter device. The device operated by transmitting a white light source into the solution which was reflected from a mirror at a distance of several millimeters from the source back to a detector in the probe. When no particles were present in suspension, most of the light was reflected back to the detector. If the solution was relatively transparent, some of the light was adsorbed by the solution and some was diffracted, but the majority was reflected. If crystals were present, a substantial quantity of the white light was adsorbed by the crystal mass and diffracted and less of the light was reflected back to the detector. In order to calibrate the instrument, a reference intensity was measured when no crystals were in suspension, and this was referred to as the 100% transmittance level.
The colorimeter was placed in the vessel such that the probe tip was submerged in the solution. The crystal free solution was cooled from 90° C. to 10° C. at a pre-determined cooling rate indicated in Table 2 and the magnitude of the transmission signal of the white light source monitored. When crystals appeared in solution, the white light source was blocked and the transmission/reflection decreased rapidly. Two distinct step changes in the transmission signal were observed indicating the nucleation of cis- and trans-2,2,4,4-tetramethylcyclobutanediol in suspension. FIG. 8 is a graph showing the solubility of cis-and trans-2,2,4,4-tetramethylcyclobutanediol in isobutyl isobutyrate and operating points for continuous crystallization.

[2] = Solubility of cis- and trans-2,2,4,4-tetramethylcyclobutanediol in isobutyl isobutyrate (GC of saturated liquid phase); format: physicochemical
Experimental: All of the solubility data and concentrations of cis and trans TMCD were measured by gas chromotography (GC) using an Agilent 6890GC instrument. The instrument was equipped with a split-splitless injector and flame ionization detection. The column is a DB®-Wax, 30 meter×0.25 mm ID, 0.50 μm film thickness column. The cis/trans ratio of the compositions was calculated from the respective concentrations.
The charge concentration of the isomers is expressed as weight % relative to the saturated concentration of each isomer at a temperature of 62.6° C.
The charge concentration of the isomers is expressed as weight % relative to the saturated concentration of each isomer at a temperature of 62.6° C. The vessel was equipped with a 4-blade flat blade pitched impeller for solids suspension, and the jacket was used to control the temperature of the vessel contents. The vessel was equipped with charging and sampling ports on top and a valve at the base to drain the vessel contents.
The slurry was allowed to stand for one hour sufficient for the solids to saturate the solvent at 6.4° C. At that time, a sample of the solution was drawn from the cell using a fritted pipette so as to remove only the liquid phase. The sample was analyzed for cis and trans isomer content. These values represented the saturated concentration of each isomer at the sampling temperature.
The cell contents were heated to 10.2° C. and the contents were held for a further hour to allow the slurry to equilibrate. A sample was then taken of the solution and analyzed. Following this procedure, data was gathered to 62.6° C.

[3] = Experiment 1, cooling rate 15 °C/hr
[4] = Experiment 2, cooling rate 10 °C/hr
[5] = Experiment 3, cooling rate 5 °C/hr
[6] = Experiment 4, cooling rate 5 °C/hr
[7] = Table 1A, in isobutyl isobutyrate, extrapolated from the data of FIG. 7
[8] = Table 2, solution in isobutyl isobutyrate used for MZW experiments 1-4
[9] = in isobutyl isobutyrate, 6.4 °C, wt % relative to saturated concentration of each isomer at 62.6 °C
[10] = in isobutyl isobutyrate, 10.2 °C, relative to saturated concentration at 62.6 °C
[11] = in isobutyl isobutyrate, 19 °C, relative to saturated concentration at 62.6 °C
[12] = in isobutyl isobutyrate, 26.2 °C, relative to saturated concentration at 62.6 °C
[13] = in isobutyl isobutyrate, 34.7 °C, relative to saturated concentration at 62.6 °C
[14] = in isobutyl isobutyrate, 39.6 °C, relative to saturated concentration at 62.6 °C
[15] = in isobutyl isobutyrate, 44.5 °C, relative to saturated concentration at 62.6 °C
[16] = in isobutyl isobutyrate, 51.6 °C, relative to saturated concentration at 62.6 °C
[17] = in isobutyl isobutyrate, 58.8 °C, relative to saturated concentration at 62.6 °C
[18] = in isobutyl isobutyrate, 62.6 °C (reference temperature)

Row | Compound | Limit of MZW [1, 3] | MZW (meta-stable zone width) [1, 3] | Limit of MZW [1, 4] | MZW (meta-stable zone width) [1, 4] | Limit of MZW [1, 5] | MZW (meta-stable zone width) [1, 5] | Limit of MZW [1, 6] | MZW (meta-stable zone width) [1, 6] | difference in onset of nucleation between repeated cool-downs [1] | Limit of Meta-Stable Zone Width [1] | Saturated Temperature [2, 7] | Saturated Temperature [2, 8] | Solubility [2, 9] | Solubility [2, 10] | Solubility [2, 11] | Solubility [2, 12] | Solubility [2, 13] | Solubility [2, 14] | Solubility [2, 15] | Solubility [2, 16] | also measured
1 | CC1(C)[C@H](O)C(C)(C)[C@@H]1O [Cis-2,2,4,4-tetramethylcyclobutanediol, cis-2,2,4,4-tetramethylcyclobutanediol] | 50.94 °C | 17.06 °C | 51.77 °C | 16.23 °C | 60.38 °C | 7.62 °C | 58.24 °C | 9.76 °C | approximately 2 °C | 58.24 °C | 68 °C | 68 °C | 0 Relative wt % | 3 Relative wt % | 10 Relative wt % | 17 Relative wt % | 29 Relative wt % | 37 Relative wt % | 47 Relative wt % | 64 Relative wt % | Solubility [2, 17]: 86 Relative wt %; Solubility [2, 18]: 100 Relative wt %
2 | CC1(C)[C@H](O)C(C)(C)[C@H]1O [Trans-2,2,4,4-tetramethylcyclobutanediol, trans-2,2,4,4-tetramethylcyclobutanediol] | 48.67 °C | 8.33 °C | 49.29 °C | 7.71 °C | 50.34 °C | 6.66 °C | 50.36 °C | 6.64 °C | 0.02 °C | 50.36 °C | 57 °C | 57 °C | 1 Relative wt % | 3 Relative wt % | 10 Relative wt % | 19 Relative wt % | 32 Relative wt % | 41 Relative wt % | 52 Relative wt % | 69 Relative wt % | Solubility [2, 17]: 89 Relative wt %; Solubility [2, 18]: 100 Relative wt %
